Results as given in patent US11661413B2, “Pyrazole compounds or salts thereof, preparation method therefor, herbicidal composition and use thereof” (priority 2015, dated 2023).

Experiments:
[1] = test system: Flixweed; assay: weed control effect in post emergence stage, greenhouse pot spray; assay type: in vivo; conditions: 16 g/mu, sprayed at 2-3 leaf stage, after 3 weeks
Description: (§1) The activity level standard of harmful plant damage (i.e. growth inhibition rate) is as follows: The above described growth control rate is fresh weight control rate. Monocotyledonous and dicotyledonous weed seeds and main crop seeds (i.e. wheat, corn, rice, soybean, cotton, oilseed, millet and Sorghum) were put into a plastic pot loaded with soil. Then covered with 0.5-2 cm soil, the seeds were allowed to grow in good greenhouse environment. The test plants were treated at 2-3 leaf stage 2-3 weeks after sowing. […] The solution was sprayed to the plants with a sprayer. Then the plants were cultured for 3 weeks in the greenhouse.

[2] = test system: Barnyard grass; assay: as above; assay type: in vivo; conditions: sprayed at 2-3 leaf stage, after 3 weeks
Description: as §1

SMILES	weed control effect (activity level), Flixweed [1]	weed control effect (activity level), Barnyard grass ([2]; 1 g/mu)	weed control effect (activity level), Barnyard grass ([2]; 2 g/mu)	weed control effect (activity level), Barnyard grass ([2]; 4 g/mu)	weed control effect (activity level), Barnyard grass ([2]; 8 g/mu)	weed control effect (activity level), Barnyard grass ([2]; 16 g/mu)
CCc1nn(CC)c(O)c1C(=O)c1ccc(S(C)(=O)=O)c(Cn2nc(C)cc2C)c1Cl [Compound 26]	10	2 (above 20% growth inhibition rate)	2 (above 20% growth inhibition rate)	4 (above 30% growth inhibition rate)	3 (above 30% growth inhibition rate)	5 (above 50% growth inhibition rate)
CCn1nc(C2CC2)c(C(=O)c2ccc(S(C)(=O)=O)c(Cn3cc(C)cn3)c2Cl)c1O [Compound 22]	10	2 (above 20% growth inhibition rate)	4 (above 30% growth inhibition rate)	6 (above 60% growth inhibition rate)	6 (above 60% growth inhibition rate)	10
CCCCCOc1c(C(=O)c2ccc(S(C)(=O)=O)c(Cn3nc(C)cc3C)c2Cl)c(C)nn1C [Compound 38]	2 (above 20% growth inhibition rate)	0	1 (above 1-10% growth inhibition rate)	1 (above 1-10% growth inhibition rate)	2 (above 20% growth inhibition rate)	2 (above 20% growth inhibition rate)
CCn1ncc(C(=O)c2ccc(S(C)(=O)=O)c(Cn3nc(C)cc3C)c2Cl)c1O [Compound 20]	10	3 (above 30% growth inhibition rate)	4 (above 30% growth inhibition rate)	6 (above 60% growth inhibition rate)	6 (above 60% growth inhibition rate)	8 (above 80% growth inhibition rate)
CCS(=O)(=O)Oc1c(C(=O)c2ccc(S(C)(=O)=O)c(Cn3cc(C)cn3)c2Cl)c(C)nn1C [Compound 32]	10	5 (above 50% growth inhibition rate)	6 (above 60% growth inhibition rate)	5 (above 50% growth inhibition rate)	7 (above 70% growth inhibition rate)	8 (above 80% growth inhibition rate)
CCn1ncc(C(=O)c2ccc(S(C)(=O)=O)c(Cn3cc(C)cn3)c2Cl)c1O [Compound 19]	10	2 (above 20% growth inhibition rate)	3 (above 30% growth inhibition rate)	3 (above 30% growth inhibition rate)	4 (above 30% growth inhibition rate)	4 (above 30% growth inhibition rate)
CCc1nn(C(C)C)c(O)c1C(=O)c1ccc(S(C)(=O)=O)c(Cn2nc(C)cc2C)c1Cl [Compound 29]	10	2 (above 20% growth inhibition rate)	3 (above 30% growth inhibition rate)	5 (above 50% growth inhibition rate)	7 (above 70% growth inhibition rate)	8 (above 80% growth inhibition rate)
CCOC(=O)Oc1c(C(=O)c2ccc(S(C)(=O)=O)c(Cn3nc(C)cc3C)c2Cl)c(C)nn1C [Compound 36]	10	2 (above 20% growth inhibition rate)	3 (above 30% growth inhibition rate)	4 (above 30% growth inhibition rate)	4 (above 30% growth inhibition rate)	5 (above 50% growth inhibition rate)
CCn1nc(C)c(C(=O)c2ccc(S(C)(=O)=O)c(Cn3nc(C)cc3C)c2Cl)c1O [Compound 17]	10	2 (above 20% growth inhibition rate)	2 (above 20% growth inhibition rate)	2 (above 20% growth inhibition rate)	4 (above 30% growth inhibition rate)	5 (above 50% growth inhibition rate)
CCOc1c(C(=O)c2ccc(S(C)(=O)=O)c(Cn3nc(C)cc3C)c2Cl)c(C)nn1C [Compound 37]	2 (above 20% growth inhibition rate)	0	1 (above 1-10% growth inhibition rate)	1 (above 1-10% growth inhibition rate)	2 (above 20% growth inhibition rate)	2 (above 20% growth inhibition rate)
Cc1cc(C)n(Cc2c(S(C)(=O)=O)ccc(C(=O)c3cnn(C)c3O)c2Cl)n1 [Compound 9]	10	2 (above 20% growth inhibition rate)	2 (above 20% growth inhibition rate)	3 (above 30% growth inhibition rate)	5 (above 50% growth inhibition rate)	5 (above 50% growth inhibition rate)
Cc1nn(C(C)C)c(O)c1C(=O)c1ccc(S(C)(=O)=O)c(Cn2cc(Cl)cn2)c1Cl [Compound 30]	10	2 (above 20% growth inhibition rate)	3 (above 30% growth inhibition rate)	5 (above 50% growth inhibition rate)	7 (above 70% growth inhibition rate)	7 (above 70% growth inhibition rate)
Cc1cc(C)n(Cc2c(S(C)(=O)=O)ccc(C(=O)c3c(C)nn(C)c3OC(=O)c3nc(Cl)ccc3Cl)c2Cl)n1 [Compound 40]	10	3 (above 30% growth inhibition rate)	5 (above 50% growth inhibition rate)	5 (above 50% growth inhibition rate)	7 (above 70% growth inhibition rate)	8 (above 80% growth inhibition rate)
CCn1nc(C)c(C(=O)c2ccc(S(C)(=O)=O)c(Cn3cc(C)cn3)c2Cl)c1O [Compound 16]	10	2 (above 20% growth inhibition rate)	3 (above 30% growth inhibition rate)	4 (above 30% growth inhibition rate)	4 (above 30% growth inhibition rate)	6 (above 60% growth inhibition rate)
Cc1cnn(Cc2c(S(C)(=O)=O)ccc(C(=O)c3cnn(C)c3O)c2Cl)c1 [Compound 7]	10	2 (above 20% growth inhibition rate)	3 (above 30% growth inhibition rate)	3 (above 30% growth inhibition rate)	6 (above 60% growth inhibition rate)	6 (above 60% growth inhibition rate)
CCc1nn(CC)c(O)c1C(=O)c1ccc(S(C)(=O)=O)c(Cn2cc(C)cn2)c1Cl [Compound 25]	10	2 (above 20% growth inhibition rate)	3 (above 30% growth inhibition rate)	4 (above 30% growth inhibition rate)	4 (above 30% growth inhibition rate)	5 (above 50% growth inhibition rate)
Cn1nc(C2CC2)c(C(=O)c2ccc(S(C)(=O)=O)c(Cn3cc(Cl)cn3)c2Cl)c1O [Compound 11]	10	2 (above 20% growth inhibition rate)	4 (above 30% growth inhibition rate)	4 (above 30% growth inhibition rate)	6 (above 60% growth inhibition rate)	7 (above 70% growth inhibition rate)
Cc1nn(C)c(O)c1C(=O)c1ccc(S(C)(=O)=O)c(Cn2nc(C(F)(F)F)cc2C(F)(F)F)c1Cl [Compound 41]	10	4 (above 30% growth inhibition rate)	5 (above 50% growth inhibition rate)	6 (above 60% growth inhibition rate)	7 (above 70% growth inhibition rate)	7 (above 70% growth inhibition rate)
